The source of these data is US4916217A, “Phosphorus containing derivatives of epipodophyllotoxin” (priority 1987, dated 1990).

One data set deals with Moser human colon. Kind of data set: in vitro cytotoxicity assay, Moser. Conditions: 50% inhibition of cell growth; etoposide values (in parentheses) from the same run. The data set is classed as cell-based. The protocol:
(§1) The test data involves a cytotoxicity assay versus various murine and human tumors, and in vivo evaluation against P-388 leukemia and B16 melanoma in mice.
(§2) The in vitro cytotoxicity assay involved growing various mammalian tumor cells, including human tumor cells, on microtitre plates employing established tissue culture methods. The concentration of each compound required to inhibit cell growth by 50% (IC50) was then determined by a four-fold serial dilution technique. The validity of the method has been supported by a report published in the "Proceedings of the American Association for Cancer Research", Vol. 25, 328, p. 1891 (1984). Tumor cells of the following types were employed for each compound tested: B16-F10 murine melanoma; Moser human colon; M109 murine lung; and three human colon tumor cell lines namely HCT-116, HCT-VM, and HCT-VP, the latter two being resistant to teniposide (VM) and etoposide (VP). A wide range of IC50 values was observed, and quantitative comparisons amongst test compounds or against the etoposide control values were not possible.

The next data set has as its system B16-F10 murine melanoma. Kind of data set: in vitro cytotoxicity assay, B16-F10. The data set is classed as cell-based. Conditions: 50% inhibition of cell growth, etoposide values (in parentheses) from the same run. Here is the method: as §1, §2
The test system of data set [1] is HCT-VM human colon tumor cell line. Kind of data set: in vitro cytotoxicity assay, HCT/VM (teniposide resistant). Format: cell-based. Conditions: 50% inhibition of cell growth; etoposide values (in parentheses) from the same run. The protocol:
as §1, §2

A further data set deals with P-388 murine leukemia. Kind of data set: P-388 murine leukemia, in vivo antitumor activity. The conditions noted are these: for Average Weight Change / Maximum Effect % T/C: P-388, i.p.; for effectiveness relative to etoposide (% T/C): P-388, days 5 and 8 protocol. Details: species or system CDF1 female mice; Average Weight Change: unit: g. Here is the method: The test protocol involved CDF1 female mice implanted intraperitoneally with a tumor inoculum of 10^6 ascites cells of P-388 murine leukemia and treated with various doses of a test compound, or with etoposide. The compounds were administered by intraperitoneal injection on various schedules. Groups of four mice were used for each dosage schedule and amount. A group of ten saline treated control mice was included in each series of experiments, and etoposide treated groups of six were included as a positive control. Thirty one, 47, and 49 day protocols were employed with the mean survival time in days being determined for each group of mice and the number of survivors at the end of the period being noted. The mice were weighed before treatment and again on day 5 or day 6. Mice weighing 20 grams each were employed and a loss in weight of up to approximately 2 grams was not considered excessive. The results are arranged in Table II and were determined in terms of % T/C which is the ratio of the mean survival time of the treated group to the mean survival time of the saline treated control group times 100. The saline treated control animals usually died within nine days. The "maximum effect" in the table is expressed as % T/C and the dose giving that effect is reported. Two different dosage regimens were employed. In one, the first dose of test drug was given on Day 1, the day of tumor inoculation, and second was given on Day 5. In the other, the first dose of test drug was given on Day 5 and a second dose on Day 8. According to the latter protocol, the etoposide control % T/C values are lower than according to the former protocol indicating a more stringent test regimen.

A further data set relates to M109 murine lung. Kind of data set: in vitro cytotoxicity assay, M109. Format: cell-based. The conditions noted are these: 50% inhibition of cell growth; etoposide values (in parentheses) from the same run. Here is the method: as §1, §2
The subject of data set [2] is HCT-VP human colon tumor cell line. Kind of data set: in vitro cytotoxicity assay, HCT/VP (etoposide resistant). The data set is classed as cell-based. The conditions noted are these: 50% inhibition of cell growth; etoposide values (in parentheses) from the same run. Here is the method:
as §1, §2

Data set [3] concerns HCT-116 human colon tumor cell line. Kind of data set: in vitro cytotoxicity assay, HCT-116. Format: cell-based. The conditions noted are these: 50% inhibition of cell growth; etoposide values (in parentheses) from the same run. Here is the method: as §1, §2
Data set [4] relates to variety of cancers including small cell lung cancer, non-lymphocytic leukemia, and nonseminomatous testicular cancer. Conditions: AMA Drug Evaluations, 5th Edition, 1983; cited from earlier work.
The next data set deals with B16 melanoma. Kind of data set: B16 melanoma, in vivo antitumor activity. The conditions noted are these: for % T/C: B16 melanoma s.c. Details: species or system BDF1 female mice.
Where [5] appears, read: 120 mg/kg, treatment days 1 and 5.
[6] abbreviates: 40 mg/kg, treatment days 1 and 5.
The mark [7] stands for this setting: 60 mg/kg, treatment days 1 and 5.
The mark [8] stands for this setting: 60 mg/kg, treatment days 5 and 8.
Where [9] appears, read: 200 mg/kg, treatment days 5 and 8.
The mark [10] stands for this setting: 160 mg/kg, treatment days 5 and 8.

≈ marks a conversion by molar mass, not a printed value. Where “and” joins values, the source holds several entries; their conditions need not be identical. Equal entries are not always repeated.

As to “Etoposide-Bis-(2-Chloroethyl)Phosphate, Mixture of 3' and 4'Regioisomers [Example 4]”, the “IC50 Moser” value in the data set on Moser human colon amounted to 84 µg/mL. Besides, the “IC50 B16-F10” value in the data set with B16-F10 murine melanoma was 13.1 µg/mL and 20.7 µg/mL. Further, the “IC50 HCT/VM” value in data set [1] is 63 µg/mL and 82 µg/mL. Also, in the data set on P-388 murine leukemia (setting [5]), the “Average Weight Change” value is reported as “+0.2” and the “Maximum Effect % T/C” value is recorded as 150 % T/C. For the same molecule, the “IC50 M109” value in the data set with M109 murine lung was > 125 µg/mL and 97 µg/mL. The “IC50 HCT/VP” value in data set [2] is 203 µg/mL and 168 µg/mL.
As to `COc1cc([C@@H]2c3cc4c(cc3[C@@H](O[C@@H]3O[C@@H]5CO[C@@H](C)O[C@H]5[C@H](O)[C@H]3O)[C@H]3COC(=O)[C@H]23)OCO4)cc(OC)c1O` [Etoposide, reference compound], the “IC50 Moser” value in the data set with Moser human colon is 38 µg/mL and 39 µg/mL. For the same molecule, the “IC50 HCT-116” value in data set [3] is 2.1 µg/mL and 2.7 µg/mL. For the same molecule, the “activity in the treatment of cancers” value in data set [4] was “active”. Moreover, the “IC50 B16-F10” value with B16-F10 murine melanoma is 1.9 µg/mL (≈ 3.23 µM); with B16-F10 murine melanoma (listed as etoposide), 9 to 12 µg/mL. For the same molecule, the “IC50 HCT/VM” value in data set [1] is 6.1 µg/mL and 3.1 µg/mL. The “Average Weight Change” value in the data set on P-388 murine leukemia (setting [6]) is reported as -1.9; with P-388 murine leukemia (setting [7]), -0.4; in the data set on P-388 murine leukemia (setting [8]), “+2.1”. Moreover, the “Maximum Effect % T/C” value in the data set on P-388 murine leukemia (setting [6]) is reported as > 450 % T/C; with P-388 murine leukemia (setting [7]), > 573 % T/C; with P-388 murine leukemia (setting [8]), 280 % T/C. The “% T/C” value with B16 melanoma (i.p., 100 mg/kg) is given as > 177. Also, the “IC50 HCT/VP” value in data set [2] was 30 µg/mL and 41 µg/mL.
`COc1cc([C@@H]2c3cc4c(cc3[C@@H](O[C@@H]3O[C@@H]5CO[C@@H](C)O[C@H]5[C@H](O)[C@H]3O)[C@H]3COC(=O)[C@H]23)OCO4)cc2c1OP(CCC#N)(CCC#N)(CCC#N)O2` [Example 3, Etoposide-3',4'-Dioxa-Tris-(2-Cyanoethyl)Phosphorane]: the “IC50 Moser” value with Moser human colon is 105 µg/mL and 79 µg/mL. Further, in data set [3], the “IC50 HCT-116” value was 15.6 µg/mL and 14.3 µg/mL. In addition, the “IC50 B16-F10” value with B16-F10 murine melanoma was 20 µg/mL and 22 µg/mL. Further, in data set [1], the “IC50 HCT/VM” value is 35 µg/mL and 56 µg/mL. Also, the “effectiveness relative to etoposide (% T/C)” value in the data set on P-388 murine leukemia is on record as “Greater effectiveness”. For the same molecule, in the data set with P-388 murine leukemia (setting [9]), the “Average Weight Change” value was “+3.2” and the “Maximum Effect % T/C” value turned out to be 285 % T/C. The “IC50 M109” value in the data set with M109 murine lung is 54 µg/mL and 56 µg/mL. For the same molecule, the “IC50 HCT/VP” value in data set [2] is 64 µg/mL and 99 µg/mL.
For `COc1cc([C@@H]2c3cc4c(cc3[C@@H](O[C@@H]3O[C@@H]5CO[C@@H](c6cccs6)O[C@H]5[C@H](O)[C@H]3O)[C@H]3COC(=O)[C@H]23)OCO4)cc(OC)c1O` [Teniposide], in data set [4], the “activity in the treatment of cancers” value is listed as “active”.
As for `CCP1(CC)(CC)Oc2cc([C@@H]3c4cc5c(cc4[C@@H](O[C@@H]4O[C@@H]6CO[C@@H](C)O[C@H]6[C@H](O)[C@H]4O)[C@H]4COC(=O)[C@H]34)OCO5)cc(OC)c2O1` [Example 1, ETOPOSIDE-3',4'-DIOXATRIETHYLPHOSPHORANE], the “IC50 Moser” value in the data set with Moser human colon is 64 µg/mL and 85 µg/mL. Besides, the “IC50 HCT-116” value in data set [3] was 47 µg/mL and 46 µg/mL. Further, in [1], the “IC50 HCT/VM” value was 56 µg/mL and 45 µg/mL. Moreover, in the data set with P-388 murine leukemia (setting [5]), the “Average Weight Change” value is listed as -0.7 and the “Maximum Effect % T/C” value is given as > 544 % T/C. For the same molecule, the “activity against B16 melanoma (prolongation of survival)” value with B16 melanoma (B16 melanoma implanted subcutaneously, i.p. dosage) was “active”. The “% T/C” value in the data set on B16 melanoma (i.p. dosage, 40 mg/kg) is reported as 145%. Besides, the “IC50 HCT/VP” value in data set [2] is 108 µg/mL and 89 µg/mL.
In the case of `COc1cc([C@@H]2c3cc4c(cc3[C@@H](O[C@@H]3O[C@@H]5CO[C@@H](C)O[C@H]5[C@H](O)[C@H]3O)[C@H]3COC(=O)[C@H]23)OCO4)cc2c1OP(C)(CO)(CO)O2` [Example 2], the “IC50 Moser” value in the data set with Moser human colon is 74 µg/mL and 70 µg/mL. Further, in data set [3], the “IC50 HCT-116” value was 9.8 µg/mL and 10.6 µg/mL. The “IC50 B16-F10” value with B16-F10 murine melanoma was 21 µg/mL and 30 µg/mL. The “effectiveness relative to etoposide (% T/C)” value in the data set with P-388 murine leukemia was “Greater effectiveness”. Besides, in the data set on P-388 murine leukemia (setting [10]), the “Average Weight Change” value is “+2.6” and the “Maximum Effect % T/C” value is on record as 305 % T/C. In the data set with M109 murine lung, the “IC50 M109” value was 76 µg/mL and 71 µg/mL. Besides, the “IC50 HCT/VP” value in data set [2] is 74 µg/mL and 80 µg/mL.
